In patent US20220265759A1, “COMPOSITION AND METHOD FOR PROMOTING WOUND HEALING” (THE BOARD OF TRUSTEES OF THE UNIVERSITY OF ILLIOIS, priority 2019, published 2022):
Each block holds one compound with its values, some of them ahead of it. Square brackets hold non-standard residues; d marks the D form. Ends that are not written are not given here. Peptide text beside a SMILES is read from it. * marks the point of attachment. d2Nal = N[C@H](Cc1ccc2ccccc2c1)C(=O)O; Myristoyl = CCCCCCCCCCCCCC(=O)*; Aib = CC(C)(N)C(=O)O

Assays:
[1] = cited from earlier work
[2] = system: HUVECs; assay: Endothelial cell tube formation induced by CCL28; assay type: cell-based, human; details: induced by 500 ng/ml CCL28
Experimental: Endothelial Cell Tube Formation. HUVECs were transfected with eNOS (50 nM), CCR10 (100 nM), or scrambled control (100 nM) siRNA and, after 48 hours, the cells were transferred to 96-well plates preloaded with extracellular matrix sold under the tradename […]®. To examine the CCL28 signaling pathways, HUVECs were pre-incubated with vehicle or specific inhibitors and then stimulated with or without CCL28 as described previously (Chen, et al. (2015) Ann. Rheum. Dis. 74:1898-1906).
The role of CCL28/CCR10 signaling pathways was further investigated in angiogenesis. Pretreatment of cells with 10 μM wortmannin (PI3K inhibitor), 5 μM U0126 (MAPK/ERK inhibitor), 1 mM L-NAME (eNOS inhibitor), 10 μM PP2 (Src kinase inhibitor), and 10 μM STO-609 ([…]) reduced endothelial cell tube formation induced by 500 ng/ml CCL28. […] In addition, CCL28 stimulation of endothelial cells for 24 hours enhanced expression levels of cell adhesion protein […] and anti-apoptotic protein B-cell leukemia/lymphoma-2 (Bcl-2), supporting the proliferation potential of endothelial cells in response to stimulation with CCL28.

[3] = target: T1, CCR10-eNOS interaction (Homo sapiens, UniProt P46092); assay: Ligand-induced CCR10-eNOS interaction in HUVEC (Co-IP, confocal co-localization); assay type: cell-based
T1 construct: host or cells: HUVEC (primary human umbilical vein endothelial cells)
T1 sequence (P46092 1-362): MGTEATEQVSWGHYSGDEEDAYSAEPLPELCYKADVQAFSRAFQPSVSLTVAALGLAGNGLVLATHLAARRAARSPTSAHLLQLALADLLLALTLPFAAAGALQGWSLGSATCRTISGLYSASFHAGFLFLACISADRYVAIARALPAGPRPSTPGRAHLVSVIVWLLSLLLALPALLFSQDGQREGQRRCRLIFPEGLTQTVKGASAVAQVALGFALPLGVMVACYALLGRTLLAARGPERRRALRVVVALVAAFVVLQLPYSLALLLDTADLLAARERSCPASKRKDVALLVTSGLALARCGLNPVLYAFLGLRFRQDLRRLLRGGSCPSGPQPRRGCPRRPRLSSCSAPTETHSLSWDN
Experimental: (§1) Co-IP Experiments, cells or mouse wounds were collected after treatment, and lysed in 2% ODG in Tris buffer. The homogenates were further prepared for Co-IP experiments as described in the art (Chen, et al. (2018) Mol. Biol. Cell 29(10):1190-1202; Chen, et al. (2020) FASEB J. 34(4):5838-5850; Chen, et al. (2015) Ann. Rheum. Dis. 74:1898-1906).
Confocal Microscopy. For cellular immunostaining, confluent monolayers of cells grown on coverslips were prepared as described previously (Chen, et al. (2012) Mel. Biol. Cell 23(7):1388-1398). Fluorescent images were obtained using a Zeiss LSM 880 confocal microscope. The co-localization coefficient in specified regions of interest (ROI) were determined using Zeiss Zen software. Briefly, using the Overlay tool, the desired ROI was drawn along the cell edge and the values for the ROIs tabulated. The scatterplot and table were automatically adjusted to the pixel distribution for the selected ROI. The data from different treatment groups were collected and analyzed for statistical significance as described previously (Chen, et al. (2020) FASEB J. 34(4):5838-5850).
To investigate whether CCR10 interacts directly with eNOS, primary culture HUVEC were collected and prepared for co-immunoprecipitation (Co-IP) to assess CCR10-eNOS interaction following stimulation with 5 μM A23187. […] Similar results were obtained in endothelial cells following stimulation with 500 ng/ml human recombinant CCL28. CCR10-eNOS interaction was further supported by confocal microscopy and high-resolution imaging. Upon stimulation with A23187 or CCL28 for 5 minutes, CCR10 co-localized to a greater extent with eNOS on the plasma membrane. Co-localization coefficient in the regions of interest (ROI) in the plasma membrane were quantified from Zeiss LSM 880 confocal microscope images using Zeiss Zen software.

[4] = target: T1, CCR10-eNOS interaction; assay: Co-IP of CCR10-eNOS interaction in HUVECs stimulated with A23187; assay type: cell-based; details: endothelial cells (HUVECs), pretreatment 50 μM, 5 μM A23187 for 5 minutes, vs control peptide
Experimental: Immunoblot and Co-Immunoprecipitation (Co-IP). After serum starvation, inhibitors were added 45 minutes prior to stimulation for indicated times at 37° C., and cells were then collected and lysed for western blot analysis. After probing for p-eNOS (Ser1177), p-p85 (Tyr458), p-Src (Tyr 416), and p-ERK (T202/Y204), the same blots were stripped and re-probed for total proteins mentioned above. For detection of CCL28-induced protein levels of β-catenin and Bcl-2, near-confluent endothelial cells were incubated with 500 ng/ml CCL28 for 24 hours in EGM-2 medium containing 1% FBS.
as §1
Therefore, the effect of inhibition of CCR10-eNOS interaction was investigated using a panel of cell-permeable peptides based on the sequence of the predicted interaction domain on eNOS. Similar peptides have been described in determining the solution structure of calmodulin bound to the target peptide of eNOS (Piazza, et al. (2014) Biochemistry 53(8):1241-9; Piazza, et al. (2016) Biochemistry 55(42):5962-71). First, myristoylated 20 amino acid peptide (491-[…]-510 (P1); SEQ ID NO:61) was synthesized based on the sequence of human eNOS (which is conserved in mouse eNOS). […] It was subsequently determined whether truncated versions of the CBD-derived peptide would have the same effect.

Compound: CC(C)(N)C(=O)N[C@@H](Cc1c[nH]cn1)C(=O)N[C@H](Cc1ccc2ccccc2c1)C(=O)N[C@H](Cc1ccccc1)C(=O)N[C@@H](CCCCN)C(N)=O [Ipamorelin] (H-[Aib]H[d2Nal][dF]K-NH2)
- terminal half-life ([1]; in humans): about 2 hours

Compound: COC(=O)[C@@H](N)CCCNC(=N)N[N+](=O)[O-] [L-NAME, N^G-nitro-L-arginine methyl ester]
- endothelial cell tube formation ([2]; pretreatment 1 mM): reduced

Compound: CNc1ccc2oc(C[C@H]3O[C@@]4(CC[C@H]3C)O[C@H]([C@H](C)C(=O)c3ccc[nH]3)[C@H](C)C[C@H]4C)nc2c1C(=O)O [Peptide A23187]
- binding of CCR10 to eNOS (Co-IP) ([3]; HUVEC, 5 μM): Enhanced
- time of maximum CCR10-eNOS binding ([3]; HUVEC, 5 μM): 5 minutes
- Co-localization coefficient of CCR10 and eNOS ([3]; plasma membrane ROI, stimulation for 5 minutes, untreated control cells 43%): 81%

Compound: N#CC(=C(/N)Sc1ccccc1N)/C(C#N)=C(\N)Sc1ccccc1N [Peptide U0126]
- endothelial cell tube formation ([2]; pretreatment 5 μM): reduced

Compound: O=C(O)c1ccc2c3c1cccc3c(=O)n1c3ccccc3nc21 [STO-609]
- endothelial cell tube formation ([2]; pretreatment 10 μM): reduced

Compound: NC(=O)CC[C@@H]1NC(=O)[C@H](Cc2ccccc2)NC(=O)[C@H](Cc2ccc(O)cc2)NC(=O)[C@@H](N)CSSC[C@@H](C(=O)N2CCC[C@H]2C(=O)N[C@@H](CCCN=C(N)N)C(=O)NCC(N)=O)NC(=O)[C@H](CC(N)=O)NC1=O [vasopressin]
- half-life ([1]; in humans): 0.167 to 0.583 h

Compound: albiglutide
- half-life ([1]; in humans): 140 to 170 h

- CCR10-eNOS interaction (Co-IP) [4]: completely blocked
Compound: myr-FKEVANAVKISASLM (Myristoyl-FKEVANAVKISASLM) [Peptide P2]

- CCR10-eNOS interaction (Co-IP) [4]: completely blocked
- CCR10-eNOS interaction (Co-IP) ([4]; listed as Myr-CBD20): significantly reduced
Compound: myr-TRKKTFKEVANAVKISASLM (Myristoyl-TRKKTFKEVANAVKISASLM) [Peptide P1]

- CCR10-eNOS interaction (Co-IP) [4]: completely blocked
Compound: myr-VANAVKISASLM (Myristoyl-VANAVKISASLM) [Peptide P3]

Compound: peginesatide
- elimination half-life ([1]; in healthy volunteers): 18.9 h
